{"source": "patent US20240417371A1", "about": "“CANNABIDIOL DERIVATIVE, AND PREPARATION METHOD THEREFOR AND USE THEREOF” (priority 2021, published 2024)", "key": {"Solubility in water": {"assay": "Solubility in water", "format": "physicochemical", "description": "^1[…]=0.8 Hz, 1[…]=7.6 Hz, 2[…]=6.8 Hz, 3H)."}, "[1]": {"tested_on": "PTZ-kindling epileptic rats", "assay": "PTZ-kindling epilepsy model: seizure duration, Ono's grade, latency", "format": "in vivo, Wistar rats", "procedure": "Wistar rats, SPF grade, weighing 240-260 g, aged 6-8 weeks, female, purchased from Shanghai Slac Laboratory Animal Co., Ltd. Feeding environment: the temperature was kept at 22±1° C., and the humidity was kept at 65%-70%, in a 12/12 hour light/dark illumination cycle, with free access to water.\nAfter 1 week of acclimatization of all rats, modeling was started. A 1.75% PTZ solution was prepared with normal saline, and the prepared PTZ solution was injected intraperitoneally at a dose of 35 mg/kg. PTZ was injected once every other day, and behavioral changes of the rats were observed within 30 min after the PTZ injection, and the seizure grade was recorded.\nDuring the experiment, after 11 consecutive injections of PTZ, the seizure grade was recorded. All rats had 5 consecutive recordings of grade 2 or above, and modeling for all rats was successful after 11 consecutive injections of PZT into all rats.\nAfter the modeling was successful, the rats were randomly grouped. Treatment was started. All Wistar rats were weighed and doses for the intragastric administration were calculated.\nBefore the administration and on day 7 and day 14 after the administration, the prepared PTZ solution was injected intraperitoneally at a dose of 35 mg/kg 1 h after intragastric administration. Behavioral changes of the rats were observed within 30 min after the PTZ injection.\nBehavioral seizure indexes before and after the administration were recorded and graded according to Ono's grading. The seizure latency, seizure grade and seizure duration were recorded."}, "Bax": {"tested_on": "Bax", "assay": "WB detection of apoptosis-related protein Bax in hippocampal tissues of PTZ-kindling rats", "format": "in vivo, Wistar rats", "conditions": "hippocampus at end of 14-day treatment, 100 mg/kg intragastric, versus model group", "procedure": "(§1) At the end of the experiment, the brains and hippocampi of the laboratory animals were collected and frozen at −80° C.\n(§2) 4. WB Detection of Expression of Apoptosis-Related Proteins Bax and Bcl-2 in Hippocampal Tissues of Rats:\n(§3) The hippocampal tissue was cut into small pieces, the lysis buffer (protease and phosphatase inhibitors added to the lysis buffer) was added at a ratio of 150-250 μL:20 mg, and the mixture was homogenized with a homogenizer until complete lysis. The sample obtained after the lysis was centrifuged at 12,000 g at 4° C. for 15 min. The supernatant was taken, subjected to protein quantification, and stored in a refrigerator at −80° C.\n(§4) • (1) Standard curve plotting: a microplate was taken, and reagents were added according to the table below. […]\n(§5) About 25 μg of the protein was loaded into each well, and the loading amount can be increased according to the experiment requirements. According to the results of protein quantification, the required protein was taken and a proper amount of sample loading buffer was added. […]"}, "Bcl-2": {"tested_on": "Bcl-2", "assay": "WB detection of apoptosis-related protein Bcl-2 in hippocampal tissues of PTZ-kindling rats", "format": "in vivo, Wistar rats", "conditions": "hippocampus at end of 14-day treatment, 100 mg/kg intragastric", "procedure": "as §1, §2, §3, §4, §5"}, "γ-aminobutyric acid": {"tested_on": "γ-aminobutyric acid", "assay": "Content of γ-aminobutyric acid in homogenate of brain tissues of rats (kit method)", "format": "in vivo, Wistar rats", "conditions": "PTZ rats after 14 days, 100 mg/kg intragastric (positive drug = valproate)", "procedure": "(§6) 5. Determination of Contents of γ-Aminobutyric Acid, Glutamic Acid, Glycine, and Aspartic Acid in Rat Brain Tissue by the Kit Method\n(§7) The experimental procedures and methods were referred to the kit instructions.\n(§8) The contents of excitatory amino acids (glutamic acid and aspartic acid) and inhibitory neurotransmitters (γ-aminobutyric acid and glycine) in the homogenate of brain tissues were determined by an ELISA kit."}, "glutamic acid": {"tested_on": "glutamic acid", "assay": "Content of glutamic acid in homogenate of brain tissues of rats (kit method)", "format": "in vivo, Wistar rats", "conditions": "PTZ rats after 14 days, 100 mg/kg intragastric (positive drug = valproate)", "procedure": "as §6, §7, §8"}, "glycine": {"tested_on": "glycine", "assay": "Content of glycine in homogenate of brain tissues of rats (kit method)", "format": "in vivo, Wistar rats", "conditions": "PTZ rats after 14 days, 100 mg/kg intragastric (positive drug = valproate)", "procedure": "as §6, §7, §8"}, "aspartic acid": {"tested_on": "aspartic acid", "assay": "Content of aspartic acid in homogenate of brain tissues of rats (kit method)", "format": "in vivo, Wistar rats", "conditions": "PTZ rats after 14 days, 100 mg/kg intragastric (positive drug = valproate)", "procedure": "as §6, §7, §8"}, "[2]": {"tested_on": "mouse model of Parkinson's disease established by the intraperitoneal injection of MPTP", "assay": "Behavioral balance beam score in MPTP model of Parkinson's disease", "format": "in vivo, C57/BL6 mice", "conditions": "scale 0-5", "procedure": "C57/BL6 mice, SPF grade, weighing 18-20 g, aged 6-8 weeks, male, purchased from Shanghai Slac Laboratory Animal Co., Ltd. Feeding environment: the temperature was kept at 22±1° C., and the humidity was kept at 65%-70%, in a 12/12 hour light/dark illumination cycle, with free access to water.\n(§9) • (1) SPF-grade C57 mice aged 6-8 weeks were purchased and acclimatized for one week, and subsequently the modeling was started. • (2) MPTP (25 mg/kg) was intraperitoneally injected once a day for 7 consecutive days. The blank group was left untreated. • (3) After modeling, administration was started. […] The intragastric administration was performed once a day for 14 consecutive days. • (4) Behavioral test was first performed by balance beam test scoring.\nA beam of 80 cm long and 2.5 cm wide was horizontally fixed at a height of 10 cm from the table top, and subsequently, the animals were allowed to walk on the beam. […]"}, "dopamine": {"tested_on": "dopamine", "assay": "Content of dopamine in striatum of the model of Parkinson's disease (kit method)", "format": "in vivo, C57/BL6 mice", "conditions": "MPTP mice; intragastric 100 mg/kg for 14 days (positive drug = amantadine 40 mg/kg)", "description": "After the mice were sacrificed quickly, the brains of the mice were taken and the cerebral palliums (CPs) of the mice were isolated. After exposing the brain striatum of the mice, the striatum was weighed and homogenized after adding PBS according to a proportion. The supernatant was isolated and detected for the content of dopamine in the brain striatum."}, "[3]": {"tested_on": "tyrosine hydroxylase (TH) cells in substantia nigra (SubN)", "assay": "Tyrosine hydroxylase (TH) cells in substantia nigra (SubN) by immunohistochemistry", "format": "in vivo, C57/BL6 mice", "conditions": "MPTP mice, intragastric 100 mg/kg for 14 days (positive drug = amantadine 40 mg/kg)", "procedure": "as §9\n5. Determination of Tyrosine Hydroxylase (TH) Cells in Substantia Nigra (SubN) by Immunohistochemistry\nThe tissue should be cut using sharp knives and scissors. When cutting a tissue mass, the tissue was cut by pulling backwards from the root of the knife. […] The prepared tissue mass was fixed in 10% formalin for 48 h.\nThe fixed tissue was washed with running water to remove residual fixing liquid and impurities. The tissue mass was dehydrated in stages with different concentrations of ethanol (50%, 70%, 85%, 95%, up to pure alcohol (absolute ethanol)), each stage for 2 h. Dehydration must be performed in a capped flask to prevent high concentrations of ethanol from absorbing moisture in the air, resulting in reduced concentrations and incomplete dehydration. The material to be preserved can remain in 70% ethanol when being dehydrated with it. For long-term preservation, an equivalent amount of glycerol can be added. […]"}, "[4]": {"conditions": "high-purity CBD, background statement; cited from earlier work"}}}
{"smiles": "C=C(C)[C@@H]1CCC(C)=C[C@H]1c1c(O)cc(CCCCC)cc1OCC(=O)N[C@@H](CCSC)C(=O)[O-].[Na+]", "note": "[Compound E1]", "values": [{"measurement": "solubility", "setting": "Solubility in water", "result": 27, "unit": "mg/mL"}, {"measurement": "Ono's grade before treatment", "setting": "[1]; grade 0-6 (Table 1), baseline before treatment", "result": "3.17 ± 0.41"}, {"measurement": "Ono's grade on day 7 of treatment", "setting": "[1]; grade 0-6, intragastric 100 mg/kg (positive drug = valproate), day 7", "result": "3.33 ± 0.52"}, {"measurement": "Ono's grade on day 14 of treatment", "setting": "[1]; grade 0-6, intragastric 100 mg/kg (positive drug = valproate), day 14", "result": "3.33 ± 0.52"}, {"measurement": "Duration on day 7 of treatment", "setting": "[1]; intragastric 100 mg/kg (positive drug = valproate 100 mg/kg), PTZ 35 mg/kg i.p. 1 h after administration, day 7", "result": "290.50 ± 66.93", "unit": "s"}, {"measurement": "Duration on day 14 of treatment", "setting": "[1]; intragastric 100 mg/kg (positive drug = valproate 100 mg/kg), PTZ 35 mg/kg i.p. 1 h after administration, day 14", "result": "299.67 ± 39.25", "unit": "s"}, {"measurement": "Latency on day 7 of treatment", "setting": "[1]; intragastric 100 mg/kg (positive drug = valproate), day 7", "result": "82.83 ± 20.90", "unit": "s"}, {"measurement": "Latency on day 14 of treatment", "setting": "[1]; intragastric 100 mg/kg (positive drug = valproate), day 14", "result": "87.00 ± 20.96", "unit": "s"}, {"measurement": "change in duration of seizure on day 14 as compared to day 7 of treatment", "setting": "[1]; intragastric 100 mg/kg, PTZ-kindling rats", "result": "no change in the duration of seizure"}, {"measurement": "Latency before treatment", "setting": "[1]; latency to seizure after PTZ 35 mg/kg i.p., baseline before treatment", "result": "85.75 ± 21.45", "unit": "s"}, {"measurement": "Duration before treatment", "setting": "[1]; seizure duration after PTZ 35 mg/kg i.p., baseline before treatment", "result": "359.83 ± 14.41", "unit": "s"}, {"measurement": "Bax protein expression in hippocampal tissues", "setting": "Bax", "result": "significant down-regulation of Bax protein expression"}, {"measurement": "Bcl-2 protein expression in hippocampal tissues", "setting": "Bcl-2", "result": "significantly higher than that in the model group"}, {"measurement": "γ-aminobutyric acid", "setting": "γ-aminobutyric acid", "result": "771.17 ± 81.98", "unit": "nmol/g"}, {"measurement": "Glutamic acid", "setting": "glutamic acid", "result": "0.14 ± 0.02", "unit": "µmol/mg"}, {"measurement": "Glycine", "setting": "glycine", "result": "0.67 ± 0.07", "unit": "ng/µg"}, {"measurement": "Aspartic acid", "setting": "aspartic acid", "result": "58.10 ± 11.71", "unit": "µmol/g"}, {"measurement": "behavioral balance beam score, After modeling", "setting": "[2]; after MPTP 25 mg/kg i.p. for 7 days, before treatment", "result": "4.63 ± 0.52"}, {"measurement": "behavioral balance beam score, After treatment", "setting": "[2]; intragastric 100 mg/kg once a day for 14 days (positive drug = amantadine 40 mg/kg)", "result": "3.75 ± 0.89"}, {"measurement": "DA, content of dopamine in striatum after treatment", "setting": "dopamine", "result": "0.45 ± 0.09 # ng/mg"}, {"measurement": "TH cell positive rate", "setting": "[3]", "result": "16.92 ± 3.13", "unit": "%"}]}
{"smiles": "C=C(C)[C@@H]1CCC(C)=C[C@H]1c1c(OCC(=O)N[C@@H](CCSC)C(=O)[O-])cc(CCCCC)cc1OCC(=O)N[C@@H](CCSC)C(=O)[O-].[Na+].[Na+]", "note": "[Compound E2]", "values": [{"measurement": "solubility", "setting": "Solubility in water", "result": 200, "unit": "mg/mL"}]}
{"smiles": "C=C(C)[C@@H]1CCC(C)=C[C@H]1c1c(O)cc(CCCCC)cc1O", "note": "[CBD, 2-[(1R,6R)-3-methyl-6-(1-methylvinyl)-2-cyclohexen-1-yl]-5-pentyl-1,3-benzenediol]", "values": [{"measurement": "solubility in water", "setting": "[4]", "result": "almost insoluble in water"}]}
